Where “and” joins values, the source holds several entries; their conditions need not be identical. Identical values can stand only once. Counter-ions that a name gives are not always drawn. Like-named read-outs stand apart in the source and are kept apart here. Marks after values point to notes of the source that are not given here.
Tests used:
[1] = format: physicochemical
Procedure: Additionally the potential activation at blood pH of 7.4 was investigated over a similar period. The concentrations of the prodrug & drug were assayed by HPLC.

[2] = format: in vitro ADME
in vivo [3] = settings: dog, read-out: Dog Oral Bioavailability (%)
Procedure: (§1) Blood samples were taken at various times after administration and submitted to analysis for the parent drug and prodrug using a validated LC-MS-MS assay. Pharmacokinetic parameters derived from the plasma analytical data were determined using Win Nonlin.

in vivo [4] = settings: monkey, read-out: Monkey Oral Bioavailability (%)
Procedure: as §1

[5] = Balikova et al. (2001); cited from earlier work
[6] = Pharmacokinetics of butorphanol or butorphanol PABA carbamate, dogs (Example 44); format: in vivo, beagle dogs; settings: butorphanol in plasma after oral butorphanol, 0.5 mg butorphanol free base/kg, dog; for half-life: read-out: t½ (converted)
Procedure: Test substances, butorphanol or butorphanol_PABA carbamate were orally administered to two male beagle dogs at 0.5 mg butorphanol free base equivalents/kg in a parallel group study design.

[7] = Pharmacokinetics of butorphanol or butorphanol PABA carbamate, monkeys (Example 43); format: in vivo, cynomolgus monkeys
Procedure: Blood samples were taken at various times after administration, and submitted to analysis for the parent drug and prodrug using a validated LC-MS-MS assay. Pharmacokinetic parameters derived from the plasma analytical data were determined using Win Nonlin.

[8] = simulated intestinal fluid pH 6.8, 37 C

SMILES: CCC1(c2cccc(OC(=O)NC(C(=O)O)C(C)C)c2)CCCCN(C)C1 [Meptazinol (S) valine carbamate]
- Chemical Stability, % prodrug remaining at 2 h, pH 10.0 ([1]; pH 10.0, 37° C, 2 h): 66% pH 10.0
- Biological/chemical stability - SIF - pH 6.8, 37 C. % prodrug remaining at 2 h [2, 8]: 99%

SMILES: CCC(C)C(NC(=O)Oc1cccc(C2(CC)CCCCN(C)C2)c1)C(=O)O (centres unmarked) [Meptazinol isoleucine carbamate]
- Chemical Stability, % prodrug remaining at 2 h, pH 10.0 ([1]; pH 10.0, 37° C, 2 h): 73% pH 10.0
- Biological/chemical stability - SIF - pH 6.8, 37 C. % prodrug remaining at 2 h [2, 8]: 99%

SMILES: CCC1(c2cccc(O)c2)CCCCN(C)C1 (centres unmarked) [Meptazinol HCl (oral), Meptazinol HCl]
- bioavailability (in vivo [3]): 6 ± 2.1%
- bioavailability (in vivo [4]): 1.8 ± 0.2%

SMILES: CCC1(c2cccc(OC(=O)NC(C(=O)O)C(C)C)c2)CCCCN(C)C1 [Meptazinol (R)-valine carbamate]
- Chemical Stability - pH 7.4, 37° C. % prodrug remaining at 2 h ([1]; pH 7.4, 37° C, 2 h): 96%
- Biological/chemical stability - SIF - pH 6.8, 37 C. % prodrug remaining at 2 h [2, 8]: 74%

SMILES: CCC1(c2cccc(OC(=O)N[C@H](C(=O)O)C(C)C)c2)CCCCN(C)C1 (some centres unmarked) [Meptazinol-valine carbamate]
- Chemical stability at pH 7.4 ([1]; pH 7.4): ~100%

SMILES: COc1ccc2c3c1O[C@H]1[C@@H](O)CC[C@H]4[C@@H](C2)N(C)CC[C@@]341 [dihydrocodeine]
- oral dose converted to dihydromorphine [5]: less than 2%

SMILES: CCC1(c2cccc(OC(=O)NC(CCSC)C(=O)O)c2)CCCCN(C)C1 (centres unmarked) [Meptazinol methionine carbamate]
- Chemical Stability, % prodrug remaining at 2 h, pH 10.0 ([1]; buffer, 2 h, pH 10): 60% pH 10.0
- Biological/chemical stability - SIF - pH 6.8, 37 C. % prodrug remaining at 2 h ([2]; simulated gi fluid, pH 6.8): 100%

SMILES: Oc1ccc2c(c1)[C@@]13CCCC[C@@]1(O)[C@@H](C2)N(CC1CCC1)CC3 [butorphanol]
- T>50%Cmax ([6]; Average): 2.0 h
- AUC ([6]; single animal): 1.80 ng·h/mL
- Cmax ([6]; single animal): 0.56 ng/mL
- T>50%Cmax ([6]; single animal): 1.6 h and 2.4 h
- Tmax ([6]; single animal): 1.00 h
- t½ ([6]; single animal): 1.7 h
- AUC ([6]; male, beagle, plasma, po, 0.5 mg/kg, Average, read-out: AUC): 2.05 ng·h/mL
- Cmax ([6]; male, beagle, plasma, po, 0.5 mg/kg, Average, read-out: Cmax): 0.73 ng/mL
- Tmax ([6]; male, beagle, plasma, po, 0.5 mg/kg, Average, read-out: Tmax): 0.75 h
- half-life ([6]; male, beagle, plasma, po, 0.5 mg/kg, Average): 1.6 h
- AUC ([6]; male, beagle, plasma, po, 0.5 mg/kg, single animal, read-out: AUC): 2.3 ng·h/mL
- Cmax ([6]; male, beagle, plasma, po, 0.5 mg/kg, single animal, read-out: Cmax): 0.9 ng/mL
- Tmax ([6]; male, beagle, plasma, po, 0.5 mg/kg, single animal, read-out: Tmax): 0.5 h
- half-life ([6]; male, beagle, plasma, po, 0.5 mg/kg, single animal): 1.6 h
- Cmax ([7]; butorphanol in plasma after oral butorphanol, 1.0 mg butorphanol free base/kg, monkey, single animal, below the LLOQ of 0.1 ng/mL): <0.1* ng/mL
- AUC ([7]; male, cynomolgus monkey, 1 mg butorphanol free base equivalents/kg, butorphanol in plasma after oral butorphanol, 1.0 mg butorphanol free base/kg, Average, estimate of maximal systemic exposure): 0.62 ng·h/mL
- Tmax ([7]; male, cynomolgus monkey, 1 mg butorphanol free base equivalents/kg, butorphanol in plasma after oral butorphanol, 1.0 mg butorphanol free base/kg, Average, plasma concentrations below the LLOQ of 0.1 ng/mL): 0.5 h
- half-life ([7]; male, cynomolgus monkey, plasma, 1 mg butorphanol free base equivalents/kg, butorphanol, oral butorphanol 1.0 mg free base/kg, Average, value after giving prodrug and used for estimating maximal systemic exposure, read-out: t½ (converted)): 6.1 h
- Cmax ([7]; male, cynomolgus monkey, plasma, po, 1 mg butorphanol free base equivalents/kg, butorphanol in plasma after oral butorphanol, 1.0 mg butorphanol free base/kg, Average, plasma concentrations below the LLOQ of 0.1 ng/mL, read-out: Cmax): 0.1 ng/mL
- Cmax ([7]; male, cynomolgus monkey, plasma, po, 1 mg butorphanol free base equivalents/kg, butorphanol in plasma after oral butorphanol, 1.0 mg butorphanol free base/kg, single animal, below the LLOQ of 0.1 ng/mL, read-out: Cmax): < 0.1 ng/mL

Reference: patent US20110190267A1, “PRODRUGS OF OPIOIDS AND USES THEREOF” (priority 2010, published 2011)
